Experimental data published in ChEMBL document CHEMBL4507274 (2021).

Legend:
[1] = biological target: Mitogen-activated protein kinase kinase kinase 14 (Homo sapiens) (UniProt Q99558); settings: Compound concentration 100.0 nM
[2] = biological target: Homeodomain-interacting protein kinase 2 (Homo sapiens) (UniProt Q9H2X6); settings: Compound concentration 100.0 nM
[3] = biological target: 1-phosphatidylinositol 3-phosphate 5-kinase (Homo sapiens) (UniProt Q9Y2I7); settings: Compound concentration 100.0 nM
[4] = biological target: Mitogen-activated protein kinase kinase kinase kinase 4 (Homo sapiens) (UniProt O95819); settings: Compound concentration 100.0 nM
[5] = biological target: Cyclin-dependent kinase 4 (Homo sapiens) (UniProt P11802); settings: Compound concentration 100.0 nM
[6] = biological target: Phosphatidylinositol 5-phosphate 4-kinase type-2 gamma (Homo sapiens) (UniProt Q8TBX8); settings: Compound concentration 100.0 nM
[7] = biological target: Mitotic checkpoint serine/threonine-protein kinase BUB1 (Homo sapiens) (UniProt O43683); settings: Compound concentration 100.0 nM
[8] = biological target: Calcium/calmodulin-dependent protein kinase kinase 1 (Homo sapiens) (UniProt Q8N5S9); settings: Compound concentration 100.0 nM
[9] = biological target: Phosphatidylinositol 4-phosphate 5-kinase type-1 alpha (Homo sapiens) (UniProt Q99755); settings: Compound concentration 100.0 nM
[10] = biological target: Transient receptor potential cation channel subfamily M member 6 (Homo sapiens) (UniProt Q9BX84); settings: Compound concentration 100.0 nM
[11] = biological target: Mitogen-activated protein kinase 11 (Homo sapiens) (UniProt Q15759); settings: Compound concentration 100.0 nM
[12] = biological target: 5-hydroxytryptamine receptor 1B (Homo sapiens) (UniProt P28222); settings: Compound concentration 10.0 uM
[13] = biological target: Dual serine/threonine and tyrosine protein kinase (Homo sapiens) (UniProt Q6XUX3); settings: Compound concentration 100.0 nM
[14] = biological target: Cyclin-dependent kinase 11A (Homo sapiens) (UniProt Q9UQ88); settings: Compound concentration 100.0 nM
[15] = biological target: Mitogen-activated protein kinase kinase kinase 3 (Homo sapiens) (UniProt Q99759); settings: Compound concentration 100.0 nM
[16] = biological target: Tyrosine-protein kinase Tec (Homo sapiens) (UniProt P42680); settings: Compound concentration 100.0 nM
[17] = biological target: Phosphatidylinositol 4-phosphate 3-kinase C2 domain-containing subunit beta (Homo sapiens) (UniProt O00750); settings: Compound concentration 100.0 nM
[18] = biological target: Mitogen-activated protein kinase kinase kinase 12 (Homo sapiens) (UniProt Q12852); settings: Compound concentration 100.0 nM
[19] = test system: eIF-2-alpha kinase GCN2 (Homo sapiens), Q9P2K8 [S808G]; settings: Compound concentration 100.0 nM
[20] = biological target: Myosin-IIIa (Homo sapiens) (UniProt Q8NEV4); settings: Compound concentration 100.0 nM
[21] = biological target: Cyclin-dependent kinase 4 (Homo sapiens) (UniProt P11802); settings: Compound concentration 100.0 nM; remark: listed apart in the source
[22] = biological target: Citron Rho-interacting kinase (Homo sapiens) (UniProt O14578); settings: Compound concentration 100.0 nM
[23] = biological target: Peripheral plasma membrane protein CASK (Homo sapiens) (UniProt O14936); settings: Compound concentration 100.0 nM
[24] = biological target: Megakaryocyte-associated tyrosine-protein kinase (Homo sapiens) (UniProt P42679); settings: Compound concentration 100.0 nM
[25] = biological target: Receptor-interacting serine/threonine-protein kinase 2 (Homo sapiens) (UniProt O43353); settings: Compound concentration 100.0 nM
[26] = biological target: NUAK family SNF1-like kinase 2 (Homo sapiens) (UniProt Q9H093); settings: Compound concentration 100.0 nM
[27] = biological target: TGF-beta receptor type-1 (Homo sapiens) (UniProt P36897); settings: Compound concentration 100.0 nM
[28] = biological target: Activated CDC42 kinase 1 (Homo sapiens) (UniProt Q07912); settings: Compound concentration 100.0 nM
[29] = biological target: Tyrosine-protein kinase TXK (Homo sapiens) (UniProt P42681); settings: Compound concentration 100.0 nM
[30] = test system: Phosphatidylinositol 4,5-bisphosphate 3-kinase catalytic subunit alpha isoform (Homo sapiens), P42336 [I800L]; settings: Compound concentration 100.0 nM
[31] = biological target: Dual specificity protein kinase TTK (Homo sapiens) (UniProt P33981); settings: Compound concentration 100.0 nM
[32] = biological target: Serine/threonine-protein kinase PLK1 (Homo sapiens) (UniProt P53350); settings: Compound concentration 100.0 nM
[33] = test system: Mast/stem cell growth factor receptor Kit (Homo sapiens), P10721 [V559D,T670I]; settings: Compound concentration 100.0 nM
[34] = biological target: Ephrin type-A receptor 7 (Homo sapiens) (UniProt Q15375); settings: Compound concentration 100.0 nM
[35] = biological target: Uncharacterized serine/threonine-protein kinase SBK3 (Homo sapiens) (UniProt P0C264); settings: Compound concentration 100.0 nM
[36] = biological target: Microtubule-associated serine/threonine-protein kinase 1 (Homo sapiens) (UniProt Q9Y2H9); settings: Compound concentration 100.0 nM
[37] = biological target: Serine/threonine-protein kinase Sgk2 (Homo sapiens) (UniProt Q9HBY8); settings: Compound concentration 100.0 nM
[38] = biological target: 5'-AMP-activated protein kinase catalytic subunit alpha-2 (Homo sapiens) (UniProt P54646); settings: Compound concentration 100.0 nM
[39] = biological target: Phosphatidylinositol 3-kinase C2 domain-containing subunit gamma (Homo sapiens) (UniProt O75747); settings: Compound concentration 100.0 nM
[40] = biological target: Mitogen-activated protein kinase kinase kinase 4 (Homo sapiens) (UniProt Q9Y6R4); settings: Compound concentration 100.0 nM
[41] = biological target: Serine/threonine-protein kinase PLK3 (Homo sapiens) (UniProt Q9H4B4); settings: Compound concentration 100.0 nM
[42] = biological target: Histamine H1 receptor (Homo sapiens) (UniProt P35367); settings: Compound concentration 10.0 uM
[43] = biological target: D(4) dopamine receptor (Homo sapiens) (UniProt P21917); settings: Compound concentration 10.0 uM
[44] = biological target: Tyrosine-protein kinase Fyn (Homo sapiens) (UniProt P06241); settings: Compound concentration 100.0 nM
[45] = test system: Tyrosine-protein kinase ABL1 (Homo sapiens), P00519 [M351T]; settings: Compound concentration 100.0 nM

Cyclin-dependent kinase 4 (Homo sapiens), sequence (P11802 whole entry): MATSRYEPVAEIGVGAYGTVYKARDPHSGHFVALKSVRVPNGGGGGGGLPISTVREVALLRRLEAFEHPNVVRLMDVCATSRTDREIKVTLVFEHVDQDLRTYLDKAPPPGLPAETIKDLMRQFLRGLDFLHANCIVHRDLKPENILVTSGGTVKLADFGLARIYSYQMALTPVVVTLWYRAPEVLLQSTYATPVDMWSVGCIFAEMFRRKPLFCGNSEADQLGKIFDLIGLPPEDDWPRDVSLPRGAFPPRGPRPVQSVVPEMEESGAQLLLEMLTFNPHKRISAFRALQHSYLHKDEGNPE
NUAK family SNF1-like kinase 2 (Homo sapiens), sequence (Q9H093 whole entry): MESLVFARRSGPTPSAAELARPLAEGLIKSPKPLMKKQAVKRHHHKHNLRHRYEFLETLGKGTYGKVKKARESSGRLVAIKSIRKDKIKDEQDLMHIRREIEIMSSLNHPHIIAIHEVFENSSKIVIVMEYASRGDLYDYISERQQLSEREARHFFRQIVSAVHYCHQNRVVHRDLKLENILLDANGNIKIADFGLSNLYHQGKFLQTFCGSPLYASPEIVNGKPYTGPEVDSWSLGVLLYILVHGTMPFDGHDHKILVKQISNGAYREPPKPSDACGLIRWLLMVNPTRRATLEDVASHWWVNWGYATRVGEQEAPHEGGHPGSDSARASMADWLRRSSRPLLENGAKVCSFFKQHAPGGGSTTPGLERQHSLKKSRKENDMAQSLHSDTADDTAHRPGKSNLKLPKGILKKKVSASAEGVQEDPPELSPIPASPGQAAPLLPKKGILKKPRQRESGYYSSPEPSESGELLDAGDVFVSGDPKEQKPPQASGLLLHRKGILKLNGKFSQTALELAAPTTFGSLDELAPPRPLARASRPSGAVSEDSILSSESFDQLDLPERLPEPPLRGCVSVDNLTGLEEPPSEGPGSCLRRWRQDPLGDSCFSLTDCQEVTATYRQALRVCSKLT
Receptor-interacting serine/threonine-protein kinase 2 (Homo sapiens), sequence (O43353 whole entry): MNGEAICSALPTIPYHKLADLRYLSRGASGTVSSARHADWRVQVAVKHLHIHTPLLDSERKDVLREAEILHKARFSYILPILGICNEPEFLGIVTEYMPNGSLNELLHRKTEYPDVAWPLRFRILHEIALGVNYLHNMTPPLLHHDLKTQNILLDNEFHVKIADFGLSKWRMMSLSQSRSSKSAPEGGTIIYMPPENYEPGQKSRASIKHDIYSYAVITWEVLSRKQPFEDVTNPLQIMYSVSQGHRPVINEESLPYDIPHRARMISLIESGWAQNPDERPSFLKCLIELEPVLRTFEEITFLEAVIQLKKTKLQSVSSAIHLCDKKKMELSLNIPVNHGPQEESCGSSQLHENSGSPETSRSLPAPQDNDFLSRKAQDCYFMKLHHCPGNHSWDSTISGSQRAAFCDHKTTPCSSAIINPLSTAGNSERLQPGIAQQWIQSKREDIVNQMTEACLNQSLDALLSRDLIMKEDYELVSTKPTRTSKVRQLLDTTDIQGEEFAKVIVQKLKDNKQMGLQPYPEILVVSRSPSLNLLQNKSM
Mitogen-activated protein kinase kinase kinase 14 (Homo sapiens), sequence (Q99558 whole entry, looked up): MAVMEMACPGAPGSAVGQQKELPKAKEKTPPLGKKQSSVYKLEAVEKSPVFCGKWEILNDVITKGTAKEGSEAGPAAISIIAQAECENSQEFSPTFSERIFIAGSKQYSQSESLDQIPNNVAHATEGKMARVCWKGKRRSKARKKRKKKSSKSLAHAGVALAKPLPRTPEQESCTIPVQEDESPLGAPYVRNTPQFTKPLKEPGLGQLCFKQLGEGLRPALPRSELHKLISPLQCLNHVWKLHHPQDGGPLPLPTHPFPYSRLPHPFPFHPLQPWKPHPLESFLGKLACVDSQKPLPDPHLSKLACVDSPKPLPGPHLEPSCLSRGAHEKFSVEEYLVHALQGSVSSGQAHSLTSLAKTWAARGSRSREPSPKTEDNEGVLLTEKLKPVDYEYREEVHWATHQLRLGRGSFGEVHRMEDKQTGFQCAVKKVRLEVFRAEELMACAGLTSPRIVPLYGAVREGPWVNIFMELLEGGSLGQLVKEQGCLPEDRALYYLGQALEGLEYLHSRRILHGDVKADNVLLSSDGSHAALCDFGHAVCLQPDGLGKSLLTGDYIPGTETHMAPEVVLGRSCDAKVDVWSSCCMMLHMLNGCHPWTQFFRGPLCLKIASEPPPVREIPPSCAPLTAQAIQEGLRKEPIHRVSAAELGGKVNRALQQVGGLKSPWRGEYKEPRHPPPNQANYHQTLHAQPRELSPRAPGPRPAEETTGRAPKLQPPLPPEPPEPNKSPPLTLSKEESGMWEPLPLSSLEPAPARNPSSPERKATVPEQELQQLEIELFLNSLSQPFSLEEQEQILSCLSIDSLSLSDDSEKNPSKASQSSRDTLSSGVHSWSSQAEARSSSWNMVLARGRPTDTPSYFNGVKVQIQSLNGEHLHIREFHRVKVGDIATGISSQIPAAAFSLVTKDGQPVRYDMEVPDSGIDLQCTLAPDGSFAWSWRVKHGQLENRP
Megakaryocyte-associated tyrosine-protein kinase (Homo sapiens), sequence (P42679 whole entry): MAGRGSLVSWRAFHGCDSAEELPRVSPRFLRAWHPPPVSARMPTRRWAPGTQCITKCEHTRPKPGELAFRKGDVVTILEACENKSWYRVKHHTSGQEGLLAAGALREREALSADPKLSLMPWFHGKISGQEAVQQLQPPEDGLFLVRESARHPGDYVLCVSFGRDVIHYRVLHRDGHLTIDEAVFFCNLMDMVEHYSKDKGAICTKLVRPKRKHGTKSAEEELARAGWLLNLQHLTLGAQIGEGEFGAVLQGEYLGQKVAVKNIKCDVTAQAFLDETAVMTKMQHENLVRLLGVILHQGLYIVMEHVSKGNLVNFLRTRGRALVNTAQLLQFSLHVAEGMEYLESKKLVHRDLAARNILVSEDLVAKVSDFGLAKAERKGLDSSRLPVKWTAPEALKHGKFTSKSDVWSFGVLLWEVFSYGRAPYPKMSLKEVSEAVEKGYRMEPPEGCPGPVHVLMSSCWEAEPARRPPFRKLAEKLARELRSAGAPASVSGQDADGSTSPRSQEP
Peripheral plasma membrane protein CASK (Homo sapiens), sequence (O14936 whole entry): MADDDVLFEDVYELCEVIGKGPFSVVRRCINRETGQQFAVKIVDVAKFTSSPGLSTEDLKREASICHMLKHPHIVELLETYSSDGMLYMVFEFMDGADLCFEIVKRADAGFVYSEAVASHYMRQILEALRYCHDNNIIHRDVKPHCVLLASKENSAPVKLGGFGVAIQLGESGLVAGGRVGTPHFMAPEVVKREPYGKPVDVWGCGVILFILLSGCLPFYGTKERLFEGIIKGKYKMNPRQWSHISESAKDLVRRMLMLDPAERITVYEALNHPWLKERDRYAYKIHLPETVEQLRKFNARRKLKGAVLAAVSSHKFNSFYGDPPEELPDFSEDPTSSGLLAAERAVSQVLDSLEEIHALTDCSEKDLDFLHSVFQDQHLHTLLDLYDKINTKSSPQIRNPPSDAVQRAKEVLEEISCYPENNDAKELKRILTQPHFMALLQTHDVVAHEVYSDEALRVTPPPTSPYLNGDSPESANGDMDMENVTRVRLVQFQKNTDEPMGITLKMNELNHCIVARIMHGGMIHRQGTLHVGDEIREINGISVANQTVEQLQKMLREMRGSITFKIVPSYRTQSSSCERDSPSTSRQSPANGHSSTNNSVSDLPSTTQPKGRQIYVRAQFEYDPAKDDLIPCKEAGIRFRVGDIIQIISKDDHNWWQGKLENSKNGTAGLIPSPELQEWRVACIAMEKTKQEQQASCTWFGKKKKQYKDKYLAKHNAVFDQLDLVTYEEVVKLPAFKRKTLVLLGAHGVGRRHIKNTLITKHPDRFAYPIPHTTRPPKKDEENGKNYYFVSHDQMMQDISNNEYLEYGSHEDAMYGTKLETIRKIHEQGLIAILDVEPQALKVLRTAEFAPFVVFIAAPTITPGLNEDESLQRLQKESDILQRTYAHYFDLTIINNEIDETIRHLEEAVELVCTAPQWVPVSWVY
5'-AMP-activated protein kinase catalytic subunit alpha-2 (Homo sapiens), sequence (P54646 whole entry, looked up, the tested form may be a part): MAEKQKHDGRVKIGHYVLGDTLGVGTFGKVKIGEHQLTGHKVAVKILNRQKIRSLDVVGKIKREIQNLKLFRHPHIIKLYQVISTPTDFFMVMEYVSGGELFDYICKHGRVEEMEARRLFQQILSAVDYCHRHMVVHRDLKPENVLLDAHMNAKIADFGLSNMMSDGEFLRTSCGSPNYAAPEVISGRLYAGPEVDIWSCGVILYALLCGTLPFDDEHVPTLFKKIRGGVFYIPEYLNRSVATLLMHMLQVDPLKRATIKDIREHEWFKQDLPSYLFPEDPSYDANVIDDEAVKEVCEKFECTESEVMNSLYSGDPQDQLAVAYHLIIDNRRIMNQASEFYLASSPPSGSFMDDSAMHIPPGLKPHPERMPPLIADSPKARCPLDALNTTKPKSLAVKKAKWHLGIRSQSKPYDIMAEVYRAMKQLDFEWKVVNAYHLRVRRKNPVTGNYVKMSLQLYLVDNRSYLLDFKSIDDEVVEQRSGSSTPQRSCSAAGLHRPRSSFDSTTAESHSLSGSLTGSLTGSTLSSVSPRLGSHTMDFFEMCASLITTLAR
Mitogen-activated protein kinase kinase kinase 3 (Homo sapiens), sequence (Q99759 whole entry): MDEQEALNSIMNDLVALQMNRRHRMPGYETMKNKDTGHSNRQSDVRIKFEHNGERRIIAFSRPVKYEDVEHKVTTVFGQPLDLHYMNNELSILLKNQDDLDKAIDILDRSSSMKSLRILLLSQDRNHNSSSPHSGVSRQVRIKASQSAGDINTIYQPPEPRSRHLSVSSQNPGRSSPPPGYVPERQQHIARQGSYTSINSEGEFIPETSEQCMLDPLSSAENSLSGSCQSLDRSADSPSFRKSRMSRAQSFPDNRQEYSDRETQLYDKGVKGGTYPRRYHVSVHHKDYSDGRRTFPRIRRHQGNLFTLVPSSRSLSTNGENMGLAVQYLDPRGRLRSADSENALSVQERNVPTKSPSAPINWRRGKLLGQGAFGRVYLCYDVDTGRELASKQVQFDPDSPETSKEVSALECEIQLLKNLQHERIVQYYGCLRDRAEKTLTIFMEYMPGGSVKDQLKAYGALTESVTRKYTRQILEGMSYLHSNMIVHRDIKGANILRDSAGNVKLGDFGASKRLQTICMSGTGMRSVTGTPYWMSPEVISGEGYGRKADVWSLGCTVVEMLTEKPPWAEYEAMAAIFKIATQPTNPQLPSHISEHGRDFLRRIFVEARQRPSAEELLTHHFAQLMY

Cn1cc(Cl)c2c(Oc3c(F)cc(Nc4cc(Cl)nc(N)n4)cc3F)ccnc21 [BAY-4900]
inactive: residual activity [1] 100% | residual activity [2] 100% | residual activity [3] 91% | residual activity [4] 86% | residual activity [5] 100% | residual activity [6] 96% | residual activity [7] 82% | residual activity [8] 100% | residual activity [9] 70% | residual activity [10] 77% | residual activity [11] 100% | inhibition [12] 5.3% | residual activity [13] 98% | residual activity [14] 100% | residual activity [15] 90% | residual activity [16] 100% | residual activity [17] 83% | residual activity [18] 100% | residual activity [19] 100% | residual activity [20] 100% | residual activity [21] 100% | residual activity [22] 100% | residual activity [23] 100% | residual activity [24] 97% | residual activity [25] 83% | residual activity [26] 85% | residual activity [27] 93% | residual activity [28] 85% | residual activity [29] 100% | residual activity [30] 82% | residual activity [31] 100% | residual activity [32] 83% | residual activity [33] 91% | residual activity [34] 96% | residual activity [35] 65% | residual activity [36] 100% | residual activity [37] 86% | residual activity [38] 97% | residual activity [39] 100% | residual activity [40] 100% | residual activity [41] 98% | inhibition [42] 3.19% | inhibition [43] 11.3% | residual activity [44] 80% | residual activity [45] 90%

Cc1c[nH]c2nccc(Oc3c(F)cc(Nc4cc(Cl)nc(N)n4)cc3F)c12 [BAY-549]
inactive: residual activity [1] 92% | residual activity [2] 90% | residual activity [3] 98% | residual activity [4] 94% | residual activity [5] 100% | residual activity [6] 100% | residual activity [7] 75% | residual activity [8] 99% | residual activity [9] 68% | residual activity [10] 83% | residual activity [11] 97% | inhibition [12] -5.28% | residual activity [13] 67% | residual activity [14] 100% | residual activity [15] 99% | residual activity [16] 86% | residual activity [17] 88% | residual activity [18] 98% | residual activity [19] 100% | residual activity [20] 95% | residual activity [21] 100% | residual activity [22] 100% | residual activity [23] 98% | residual activity [24] 88% | residual activity [25] 92% | residual activity [26] 85% | residual activity [27] 81% | residual activity [28] 95% | residual activity [29] 100% | residual activity [30] 90% | residual activity [31] 96% | residual activity [32] 75% | residual activity [33] 83% | residual activity [34] 82% | residual activity [35] 87% | residual activity [36] 100% | residual activity [37] 69% | residual activity [38] 89% | residual activity [39] 100% | residual activity [40] 100% | residual activity [41] 83% | inhibition [42] -0.06% | inhibition [43] 11.4% | residual activity [44] 100% | residual activity [45] 83%
